# Measurements from publication PMC7100886 (Cell Cycle, 2020).
# Ends that are not written are not given here. * marks the point of attachment. Biotin = O=C1N[C@H]2[C@H](CS[C@H]2CCCCC(=O)*)N1
# B1: CAPER Peptide HCC1.4 (peptide)
# peptide: Biotin-YGRKKRRQRRRRLQLMARLAEGTGLQIPPAAQQALQMSGSLAFGAVAEFSFVIDLQ
# B2: CAPER Peptide HCC1.3 (peptide)
# peptide: Biotin-YGRKKRRQRRRRLQLMARLAEGTGLQIPPAAQQALQMSGSLAFGAVADLQTRLSQQ
# Assays:
# [1] = molecular target: c-Jun (Homo sapiens, UniProt P05412); details: cited from earlier work
# [2] = tested on: BT-549 cells; details: RAD51 inhibitor; cited from earlier work
# [3] = molecular target: His-tagged recombinant c-Jun (UniProt P05412 1-331); assay: BLI
# His-tagged recombinant c-Jun, sequence (P05412 whole entry): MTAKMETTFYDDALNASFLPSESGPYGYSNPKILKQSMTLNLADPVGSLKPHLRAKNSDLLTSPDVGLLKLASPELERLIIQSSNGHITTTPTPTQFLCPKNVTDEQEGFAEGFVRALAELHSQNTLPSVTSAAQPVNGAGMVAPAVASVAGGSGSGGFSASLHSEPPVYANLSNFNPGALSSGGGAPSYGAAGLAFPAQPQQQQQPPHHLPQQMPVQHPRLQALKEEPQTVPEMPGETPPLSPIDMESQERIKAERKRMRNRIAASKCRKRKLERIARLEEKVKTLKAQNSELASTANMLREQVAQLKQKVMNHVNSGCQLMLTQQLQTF
# c-Jun, sequence (P05412 whole entry): as above
molecule,measurement,setting,value
CC[C@]1(O)C[C@@H]2CN(CCc3c([nH]c4ccccc34)[C@@](C(=O)OC)(c3cc4c(cc3OC)N(C)[C@H]3[C@@](O)(C(=O)OC)[C@H](OC(C)=O)[C@]5(CC)C=CCN6CC[C@]43[C@@H]65)C2)C1 [Vinblastine],p21,[1],decrease in p21
same,phosphorylated c-Jun,[1],increasing phosphorylated c-Jun
O=C1C(Cl)=C(N2CCOCC2)C(=O)N1c1ccc(Cl)c(Cl)c1 [RI-1],effect on efficiency of double stranded DNA break repair,[2],little to no effect
B1,Kd,[3],25.6 nM
B2,Kd,[3],8.89 nM
